Laboratory results: US9770452B2, “Quinoxaline derivatives as GPR6 modulators” (Takeda Pharmaceutical Company Limited, priority 2012, dated 2017)
Counter-ions that a name gives are not always drawn.

Molecular target: T1, GPR6 receptor (Homo sapiens, UniProt P46095)
T1 construct: expressed in transfected cells
Assay: Inhibition of cAMP Activity of GPR6 In Vitro Assay (CHO-K1 cells, HTRF cAMP)
Format: cell-based
Conditions: compounds of Compound Table 1; inhibition of constitutive cAMP activity of GPR6 expressed in CHO-K1 cells; approximate IC50; read-out: IC50
Description: Inhibition of cAMP Activity of GPR6 In Vitro Assay
This cell based assay measures the ability of compounds to inhibit the constitutive cAMP activity of GPR6 receptor expressed in CHO-K1 cells. CHO cells were stably expressed with GPR6 receptor, whose expression is controlled by a tetracycline inducable element. The cells were cultured in medium containing F12K, 10% FBS, 1% Penn/Strep, 200 ug/mL Hygromycin. GPR6 receptor expression was induced for 20 hrs with 1 μg/ml doxycycline (sigma D9891) in growth media. After addition of doxycycline cells were plated at a density of 250-500 cells per well in half-volume black clear bottom plates (Costar) and place in an incubator (37°, 5% C(O)2) for 20 hours prior to cAMP assays.
Culture media was removed from cells and they were washed with 50 μL of Ringer's Buffer (MgCl2 0.047 mg/mL, NaH2PO4 0.18 mg/mL, Na2HPO4 0.1 mg/mL, KCl 0.34 mg/mL, NaHC(O)3 1.26 mg/mL, D-glucose 1.8 mg/mL, NaCl 7 mg/mL; pH=7.4). Compounds suspended in DMSO were diluted in Ringer's Buffer containing 0.5% fatty acid free BSA and incubated on cells for 45 min at […] and 5% C(O)2. After incubation cells were incubated for 10 min at room temp with Eu-cAMP tracer solution from a Perkin Elmer Lance HTRF UltracAMP assay kit (TRF0264). Then ULight™-anti-cAMP solution from the Lance HTRF kit was added and incubated on a shaker at room temp for 1 hour prior to HTRF detection in a BMG PolarStar Omega.
IC50 curves were generated with a four-parameter logistic equation using GraphPad Prism 5.03.

T1 sequence (P46095 whole entry): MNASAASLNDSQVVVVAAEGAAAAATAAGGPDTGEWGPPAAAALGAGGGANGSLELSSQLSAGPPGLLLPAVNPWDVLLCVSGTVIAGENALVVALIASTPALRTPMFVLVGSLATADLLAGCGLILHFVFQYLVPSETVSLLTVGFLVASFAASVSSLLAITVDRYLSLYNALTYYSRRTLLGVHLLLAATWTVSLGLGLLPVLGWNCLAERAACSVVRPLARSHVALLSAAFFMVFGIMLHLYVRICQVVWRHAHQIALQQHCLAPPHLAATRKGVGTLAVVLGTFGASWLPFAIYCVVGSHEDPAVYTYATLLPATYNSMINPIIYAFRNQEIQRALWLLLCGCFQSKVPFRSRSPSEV

Compared with “3-(cyclopropylamino)-2-(4-(2,5-dichlorobenzyl)piperazin-1-yl)quinoxaline-5-carbonitrile, 2,2,2-trifluoroacetic acid salt [Cpd 248]”, “3-(cyclopropylamino)-2-(4-((2,5-difluorophenyl)fluoromethyl)piperidin-1-yl)quinoxaline-6-carbonitrile, 2,2,2-trifluoroacetic acid salt [Cpd 484]” is 64-fold lower in IC50: 1850 nM for the first, 29 nM for the second.

Compared with “3-fluoro-4-((1-(3-(isopropylamino)pyrazino[2,3-d]pyridazin-2-yl)piperidin-4-yl)oxy)benzonitrile, 2,2,2-trifluoroacetic acid salt [Cpd 639]”, “3-fluoro-4-((1-(3-(isopropylamino)pyrazino[2,3-d]pyridazin-2-yl)piperidin-4-yl)oxy)phenol, 2,2,2-trifluoroacetic acid salt [Cpd 648]” is 2.2-fold higher in IC50: 30 nM for the first, 65 nM for the second. The first is the more potent here.

Going from “4-((1-(2-(cyclopropylamino)pyrido[3,4-b]pyrazin-3-yl)piperidin-4-yl)oxy)-3-fluorophenol, 2,2,2-trifluoroacetic acid salt [Cpd 615]” to “4-((1-(2-(cyclopropylamino)pyrido[3,4-b]pyrazin-3-yl)piperidin-4-yl)oxy)-N,N-dimethylbenzamide, 2,2,2-trifluoroacetic acid salt [Cpd 588]”, the IC50 rises from 88 nM to 2740 nM (31-fold).

First: 4-((1-(3-(cyclopropylamino)pyrazino[2,3-d]pyridazin-2-yl)piperidin-4-yl)oxy)-3-fluorophenol [Cpd 623]
Second: 4-chloro-3-(1-(7-chloro-2-(cyclopropylamino)pyrido[3,4-b]pyrazin-3-yl)piperidine-4-carbonyl)benzonitrile [Cpd 595]
The IC50 of the first is 12-fold lower: 39 nM for the first, 478 nM for the second.

Compared with “5-chloro-1-((1-(2-(cyclopropylamino)pyrido[3,4-b]pyrazin-3-yl)piperidin-4-yl)methyl)pyridin-2(1H)-one [Cpd 532]”, “6-bromo-N-cyclopropyl-3-(4-(2,4-difluorobenzyl)piperidin-1-yl)quinoxalin-2-amine, 2,2,2-trifluoroacetic acid salt [Cpd 495]” is 21-fold lower in IC50: 380 nM for the first, 18 nM for the second.

First: 6-bromo-N-cyclopropyl-3-(4-((2,5-difluorophenyl)fluoromethyl)piperidin-1-yl)quinoxalin-2-amine, 2,2,2-trifluoroacetic acid salt [Cpd 500]
Second: 7-chloro-N-cyclopropyl-3-(4-(2,4-difluorobenzyl)piperidin-1-yl)pyrido[3,4-b]pyrazin-2-amine [Cpd 592]
The IC50 of the first is 6.2-fold higher: 160 nM for the first, 26 nM for the second.

Compared with “7-chloro-N-cyclopropyl-3-(4-(2,4-difluorophenoxy)piperidin-1-yl)pyrido[3,4-b]pyrazin-2-amine, 2,2,2-trifluoroacetic acid salt [Cpd 476]”, “7-chloro-N-cyclopropyl-3-(4-((2,4-difluorophenyl)fluoromethyl)piperidin-1-yl)pyrido[3,4-b]pyrazin-2-amine, 2,2,2-trifluoroacetic acid salt [Cpd 489]” is 2.1-fold lower in IC50: 15 nM for the first, 7 nM for the second. The second is the more potent here.

Going from “8-bromo-N-cyclopropyl-3-(4-(2,5-dichlorobenzyl)piperazin-1-yl)quinoxalin-2-amine, 2,2,2-trifluoroacetic acid salt [Cpd 133]” to “8-chloro-3-(4-(5-chloro-2-fluorobenzyl)piperazin-1-yl)-N-cyclopropylpyrido[3,4-b]pyrazin-2-amine, 2,2,2-trifluoroacetic acid salt [Cpd 351]”, the IC50 rises from 32 nM to 62 nM (1.9-fold). The first is the more potent here.

Compared with “8-chloro-N-cyclopropyl-3-(4-((2,5-difluorophenyl)fluoromethyl)piperidin-1-yl)pyrido[3,4-b]pyrazin-2-amine, 2,2,2-trifluoroacetic acid salt [Cpd 486]”, `Cc1cccc(CN2CCN(c3nc4ccccc4nc3NC3CC3)CC2)c1` [Cpd 1, N-cyclopropyl-3-(4-(3-methylbenzyl)piperazin-1-yl)quinoxalin-2-amine, 2,2,2-trifluoroacetic acid salt] is 180-fold higher in IC50: 98 nM for the first, 17700 nM for the second. The first is the more potent here.

First: Cc1cccc(CN2CCN(c3nc4cccnc4nc3NC3CC3)CC2)c1 [Cpd 2, N-cyclopropyl-2-(4-(3-methylbenzyl)piperazin-1-yl)pyrido[2,3-b]pyrazin-3-amine, 2,2,2-trifluoroacetic acid salt]
Second: Cc1cccc(CN2CCN(c3nc4ncccc4nc3NC3CC3)CC2)c1 [Cpd 3, N-cyclopropyl-3-(4-(3-methylbenzyl)piperazin-1-yl)pyrido[2,3-b]pyrazin-2-amine]
The IC50 of the first is 1.8-fold higher: 45400 nM for the first, 24600 nM for the second. The second is the more potent here.

First: Clc1cccc(CN2CCN(c3nc4ccccc4nc3NC3CC3)CC2)c1 [Cpd 5, 3-(4-(3-chlorobenzyl)piperazin-1-yl)-N-cyclopropylquinoxalin-2-amine, 2,2,2-trifluoroacetic acid salt]
Second: COc1ccc(C(=O)N2CCN(c3nc4ccccc4nc3NC3CC3)CC2)cc1Cl [Cpd 9, (3-chloro-4-methoxyphenyl)(4-(3-(cyclopropylamino)quinoxalin-2-yl)piperazin-1-yl)methanone, 2,2,2-trifluoroacetic acid salt]
The IC50 of the first is 4-fold higher: 40600 nM for the first, 10100 nM for the second. The second is the more potent here.

Going from `c1ccc2nc(N3CCN(Cc4ccncc4)CC3)c(NC3CC3)nc2c1` [Cpd 17, N-cyclopropyl-3-(4-(pyridin-4-ylmethyl)piperazin-1-yl)quinoxalin-2-amine, 2,2,2-trifluoroacetic acid salt] to `c1ccc(CN2CCN(c3nc4ccccc4nc3NC3CC3)CC2)nc1` [Cpd 20, N-cyclopropyl-3-(4-(pyridin-2-ylmethyl)piperazin-1-yl)quinoxalin-2-amine, 22,2,2-trifluoroacetic acid salt], the IC50 rises from 25900 nM to 69200 nM (2.7-fold).

Work on `Clc1cccc(CN2CCN(c3nc4ccccc4nc3Nc3ccc(Br)cc3)CC2)c1` [Cpd 21, N-(4-bromophenyl)-3-(4-(3-chlorobenzyl)piperazin-1-yl)quinoxalin-2-amine, 2,2,2-trifluoroacetic acid salt] yielded an IC50 of 3030 nM.

Same assay, conditions: compounds of Compound Table 2; inhibition of constitutive cAMP activity of GPR6 expressed in CHO-K1 cells; approximate IC50; read-out: IC50

First: N#Cc1ccc2nc(NC3CC3)c(C3CCN(Cc4cc(Cl)ccc4Cl)CC3)nc2c1 [Compound Table 2: Cpd 3, 2-(cyclopropylamino)-3-(1-(2,5-dichlorobenzyl)piperidin-4-yl)quinoxaline-6-carbonitrile, 2,2,2-trifluoroacetic acid salt]
Second: Cc1cc2nc(NC3CC3)c(C3CCN(Cc4ccc(F)cc4F)CC3)nc2cn1 [Compound Table 2: Cpd 6, N-cyclopropyl-3-(1-(2,4-difluorobenzyl)piperidin-4-yl)-7-methylpyrido[3,4-b]pyrazin-2-amine, 2,2,2-trifluoroacetic acid salt]
The IC50 of the first is 1.6-fold higher: 840 nM for the first, 530 nM for the second.

Going from `CC1CN(Cc2cc(Cl)ccc2Cl)CCN1c1nc2ccccc2nc1NC1CC1` (stereo not drawn) [Compound Table 2: Cpd 7, N-cyclopropyl-3-(4-(2,5-dichlorobenzyl)-2-methylpiperazin-1-yl)quinoxalin-2-amine] to `CC1CN(C(=O)c2cc(Cl)ccc2Cl)CCN1c1nc2ccccc2nc1NC1CC1` (stereo not drawn) [Compound Table 2: Cpd 8, (4-(3-(cyclopropylamino)quinoxalin-2-yl)-3-methylpiperazin-1-yl)(2,5-dichlorophenyl)methanone, 2,2,2-trifluoroacetic acid salt], the IC50 rises from 6640 nM to 79600 nM (12-fold).

With `CC(C)C1CN(c2nc3ccccc3nc2NC2CC2)CCN1Cc1cc(Cl)ccc1Cl` (stereo not drawn) [Compound Table 2: Cpd 9, N-cyclopropyl-3-(4-(2,5-dichlorobenzyl)-3-isopropylpiperazin-1-yl)quinoxalin-2-amine] the IC50 was 17700 nM.
